Target: T1, G12D-mutant human KRAS (amino acid residues 1-188) (Homo sapiens, UniProt P01116, G12D)
T1 construct: G12D or G12C-mutant human KRAS (amino acid residues 1-188) with FLAG tag; made in house; host or cells: E. coli
Test: KRAS Binding Disruption Assay (AlphaScreen; biotinylated KRpep-2d analogue or RAF1-RBD), G12D
Details: KRAS G12D; geometric mean; read-out: KRAS GMean IC50 (uM) MUTATION: G12D
Procedure: Compound binding disrupts the interaction of KRpep-2d or RAF1-RBD with KRAS, leading to a decrease in Alpha signal.
All assay components were prepared in 20 mM HEPES (pH 7.5), 100 mM NaCl, 5 mM MgCl2, 0.01% Tween-20, and 0.01% BSA. Biotinylated analogues of KRpep-2d were custom synthesized. The binding disruption assays were performed using 5-20 nM of mutant KRAS and 5-20 nM of either biotinylated KRpep-2d analogue or RAF1-RBD. 19 μL of KRAS protein and 4 μL of biotinylated KRpep-2d or RAF1-RBD were added to the wells of a 384-well plate containing 1 μL of various concentrations of test compound or DMSO vehicle. 16 wells containing KRAS, biotinylated KRpep-2d or RAF1-RBD, and 5% DMSO served as high controls. 16 wells containing KRAS only and 5% DMSO served as low controls. Binding reactions were incubated for 1 hour at 25° C., then Anti-Flag Acceptor and Streptavidin Donor Alpha beads were added at a final concentration of 10 μg/mL for an additional hour at room temperature. Alpha signal was read out on a Perkin Elmer Envision HTS instrument. The percentage inhibition at individual compound concentrations relative to high and low controls was calculated. The data were analyzed by using nonlinear regression to generate IC50 values.

T1 sequence (P01116 1-188 isoform P01116-2 G12D): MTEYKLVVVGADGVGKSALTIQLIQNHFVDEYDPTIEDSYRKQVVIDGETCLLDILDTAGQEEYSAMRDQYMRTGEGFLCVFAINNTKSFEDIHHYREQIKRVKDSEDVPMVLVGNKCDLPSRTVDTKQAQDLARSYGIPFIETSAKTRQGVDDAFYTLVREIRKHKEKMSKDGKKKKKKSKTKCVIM

IC50, 0.0001 to 10 µM:
CCc1cc(F)cc2[nH]cc(-c3ccc4c(N5C[C@H]6CC[C@@H](C5)N6)nc(OCC56CCCN5CCC6)nc4c3F)c12 [P-0535, 4-((1R,5S)-3,8-diazabicyclo[3.2.1]octan-3-yl)-7-(4-ethyl-6-fluoro-1H-indol-3-yl)-8-fluoro-2-((tetrahydro-1H-pyrrolizin-7a(5H)-yl)methoxy)quinazoline]
Oc1cc(-c2ccc3c(N4C[C@H]5CC[C@@H](C4)N5)nc(OCC4(C(F)(F)F)CC4)nc3c2F)c2ccccc2c1 [P-0536, 4-(4-((1R,5S)-3,8-diazabicyclo[3.2.1]octan-3-yl)-8-fluoro-2-((1-(trifluoromethyl)cyclopropyl)methoxy)quinazolin-7-yl)naphthalen-2-ol]
CC(C)(CNC(=O)CO)COc1nc(N2C[C@H]3CC[C@@H](C2)N3)c2ccc(-c3cc(O)cc4ccccc34)c(F)c2n1 [P-0537, N-(3-((4-((1R,5S)-3,8-diazabicyclo[3.2.1]octan-3-yl)-8-fluoro-7-(3-hydroxynaphthalen-1-yl)quinazolin-2-yl)oxy)-2,2-dimethylpropyl)-2-hydroxyacetamide]
C=Cc1cccc2cccc(-c3ccc4c(N5C[C@H]6CC[C@@H](C5)N6)nc(OCC56CCCN5CCC6)nc4c3F)c12 [P-0538, 4-((1R,5S)-3,8-diazabicyclo[3.2.1]octan-3-yl)-8-fluoro-2-((tetrahydro-1H-pyrrolizin-7a(5H)-yl)methoxy)-7-(8-vinylnaphthalen-1-yl)quinazoline]
O=[N+]([O-])c1cccc2cncc(-c3ccc4c(N5C[C@H]6CC[C@@H](C5)N6)nc(OCC56CCCN5CCC6)nc4c3F)c12 [P-0539, 4-((1R,5S)-3,8-diazabicyclo[3.2.1]octan-3-yl)-8-fluoro-7-(5-nitroisoquinolin-4-yl)-2-((tetrahydro-1H-pyrrolizin-7a(5H)-yl)methoxy)quinazoline]
Nc1ccc(Cl)c(-c2c(Cl)cc3c(N4C[C@H]5CC[C@@H](C4)N5)nc(OCC45CCCN4CCC5)nc3c2F)c1 [P-0540, 3-(4-((1R,5S)-3,8-diazabicyclo[3.2.1]octan-3-yl)-6-chloro-8-fluoro-2-((tetrahydro-1H-pyrrolizin-7a(5H)-yl)methoxy)quinazolin-7-yl)-4-chloroaniline]
CC(C)(CO)COc1nc(N2C[C@H]3CC[C@@H](C2)N3)c2ccc(-c3cccc4cccc(Cl)c34)c(F)c2n1 [P-0541, 3-((4-((1R,5S)-3,8-diazabicyclo[3.2.1]octan-3-yl)-7-(8-chloronaphthalen-1-yl)-8-fluoroquinazolin-2-yl)oxy)-2,2-dimethylpropan-1-ol]
CS(=O)(=O)NCCN1[C@@H]2CC[C@H]1CN(c1nc(OCC34CCCN3CCC4)nc3c(F)c(-c4cc(O)cc5ccccc45)ccc13)C2 [P-0542, N-(2-((1R,5S)-3-(8-fluoro-7-(3-hydroxynaphthalen-1-yl)-2-((tetrahydro-1H-pyrrolizin-7a(5H)-yl)methoxy)quinazolin-4-yl)-3,8-diazabicyclo[3.2.1]octan-8-yl)ethyl)methanesulfonamide]
NC(=O)NCCN1[C@@H]2CC[C@H]1CN(c1nc(OCC34CCCN3CCC4)nc3c(F)c(-c4cc(O)cc5ccccc45)ccc13)C2 [P-0543, 1-(2-((1R,5S)-3-(8-fluoro-7-(3-hydroxynaphthalen-1-yl)-2-((tetrahydro-1H-pyrrolizin-7a(5H)-yl)methoxy)quinazolin-4-yl)-3,8-diazabicyclo[3.2.1]octan-8-yl)ethyl)urea]
CC(=O)NCCN1[C@@H]2CC[C@H]1CN(c1nc(OCC34CCCN3CCC4)nc3c(F)c(-c4cc(O)cc5ccccc45)ccc13)C2 [P-0544, N-(2-((1R,5S)-3-(8-fluoro-7-(3-hydroxynaphthalen-1-yl)-2-((tetrahydro-1H-pyrrolizin-7a(5H)-yl)methoxy)quinazolin-4-yl)-3,8-diazabicyclo[3.2.1]octan-8-yl)ethyl)acetamide]
NCCN1[C@@H]2CC[C@H]1CN(c1nc(OCC34CCCN3CCC4)nc3c(F)c(-c4cc(O)cc5ccccc45)ccc13)C2 [P-0545, 4-(4-((1R,5S)-8-(2-aminoethyl)-3,8-diazabicyclo[3.2.1]octan-3-yl)-8-fluoro-2-((tetrahydro-1H-pyrrolizin-7a(5H)-yl)methoxy)quinazolin-7-yl)naphthalen-2-ol]
NC1(CCO)CN(c2nc(N3C[C@H]4CC[C@@H](C3)N4)c3ccc(-c4cc(O)cc5ccccc45)c(F)c3n2)C1 [P-0546, 4-(2-(3-amino-3-(2-hydroxyethyl)azetidin-1-yl)-4-((1R,5S)-3,8-diazabicyclo[3.2.1]octan-3-yl)-8-fluoroquinazolin-7-yl)naphthalen-2-ol]
O=C1NC2(CCO1)CN(c1nc(N3C[C@H]4CC[C@@H](C3)N4)c3ccc(-c4cc(O)cc5ccccc45)c(F)c3n1)C2 [P-0547, 2-(4-((1R,5S)-3,8-diazabicyclo[3.2.1]octan-3-yl)-8-fluoro-7-(3-hydroxynaphthalen-1-yl)quinazolin-2-yl)-7-oxa-2,5-diazaspiro[3.5]nonan-6-one]
Cc1ccc2[nH]nc(C)c2c1-c1ccc2c(N3C[C@H]4CC[C@@H](C3)N4)nc(OCC34CCCN3CCC4)nc2c1F [P-0548, 4-((1R,5S)-3,8-diazabicyclo[3.2.1]octan-3-yl)-7-(3,5-dimethyl-1H-indazol-4-yl)-8-fluoro-2-((tetrahydro-1H-pyrrolizin-7a(5H)-yl)methoxy)quinazoline]
CCc1cccc2[nH]cc(-c3ncc4c(N5C[C@H]6CC[C@@H](C5)N6)nc(OCC56CCCN5CCC6)nc4c3F)c12 [P-0549, 4-((1R,5S)-3,8-diazabicyclo[3.2.1]octan-3-yl)-7-(4-ethyl-1H-indol-3-yl)-8-fluoro-2-((tetrahydro-1H-pyrrolizin-7a(5H)-yl)methoxy)pyrido[4,3-d]pyrimidine]
NC(=O)CN1[C@@H]2CC[C@H]1CN(c1nc(OCC34CCCN3CCC4)nc3c(F)c(-c4cc(O)cc5ccccc45)ccc13)C2 [P-0550, 2-((1R,5S)-3-(8-fluoro-7-(3-hydroxynaphthalen-1-yl)-2-((tetrahydro-1H-pyrrolizin-7a(5H)-yl)methoxy)quinazolin-4-yl)-3,8-diazabicyclo[3.2.1]octan-8-yl)acetamide]
CC(C)(C)OC(=O)NCCN1[C@@H]2CC[C@H]1CN(c1nc(OCC34CCCN3CCC4)nc3c(F)c(-c4cc(O)cc5ccccc45)ccc13)C2 [P-0551, tert-butyl (2-((1R,5S)-3-(8-fluoro-7-(3-hydroxynaphthalen-1-yl)-2-((tetrahydro-1H-pyrrolizin-7a(5H)-yl)methoxy)quinazolin-4-yl)-3,8-diazabicyclo[3.2.1]octan-8-yl)ethyl)carbamate]
O=C(O)CN1[C@@H]2CC[C@H]1CN(c1nc(OCC34CCCN3CCC4)nc3c(F)c(-c4cc(O)cc5ccccc45)ccc13)C2 [P-0552, 2-((1R,5S)-3-(8-fluoro-7-(3-hydroxynaphthalen-1-yl)-2-((tetrahydro-1H-pyrrolizin-7a(5H)-yl)methoxy)quinazolin-4-yl)-3,8-diazabicyclo[3.2.1]octan-8-yl)acetic acid]
CN1CC(F)(F)C[C@H]1COc1nc(N2C[C@H]3CC[C@@H](C2)N3)c2ccc(-c3cc(O)cc4ccccc34)c(F)c2n1 [P-0553, 4-(4-((1R,5S)-3,8-diazabicyclo[3.2.1]octan-3-yl)-2-(((S)-4,4-difluoro-1-methylpyrrolidin-2-yl)methoxy)-8-fluoroquinazolin-7-yl)naphthalen-2-ol]
CN1C[C@@H](F)C[C@H]1COc1nc(N2C[C@H]3CC[C@@H](C2)N3)c2ccc(-c3cc(O)cc4ccccc34)c(F)c2n1 [P-0554, 4-(4-((1R,5S)-3,8-diazabicyclo[3.2.1]octan-3-yl)-8-fluoro-2-(((2S,4S)-4-fluoro-1-methylpyrrolidin-2-yl)methoxy)quinazolin-7-yl)naphthalen-2-ol]
Oc1cc(-c2ccc3c(N4C[C@H]5CC[C@@H](C4)N5)nc(N4CC5(CCC5O)C4)nc3c2F)c2ccccc2c1 (stereo partly drawn) [P-0555, 2-(4-((1R,5S)-3,8-diazabicyclo[3.2.1]octan-3-yl)-8-fluoro-7-(3-hydroxynaphthalen-1-yl)quinazolin-2-yl)-2-azaspiro[3.3]heptan-5-ol]
Oc1cc(-c2ccc3c(N4C[C@H]5CC[C@@H](C4)N5)nc(NCC4CCCC4O)nc3c2F)c2ccccc2c1 (stereo partly drawn) [P-0556, 4-(4-((1R,5S)-3,8-diazabicyclo[3.2.1]octan-3-yl)-8-fluoro-2-(((2-hydroxycyclopentyl)methyl)amino)quinazolin-7-yl)naphthalen-2-ol]
CNCC1CN(c2nc(N3C[C@H]4CC[C@@H](C3)N4)c3ccc(-c4cc(O)cc5ccccc45)c(F)c3n2)C1 [P-0557, 4-(4-((1R,5S)-3,8-diazabicyclo[3.2.1]octan-3-yl)-8-fluoro-2-(3-((methylamino)methyl)azetidin-1-yl)quinazolin-7-yl)naphthalen-2-ol]
